Data taken from US6339075B1, “Use of dextran and other polysaccharides to improve mucus clearance” (The University of British Columbia, priority 1997, dated 2002).

Tested on: healthy mongrel dogs
Assay: Arginine aerosol with or without dextran in anaesthetized dogs: PD, TMV, mucus rigidity
Assay type: in vivo, dog
Procedure: Arginine/arg. HCl was prepared as described by Solomons (Pediatrics 1971;47:384), making a stock solution of 290 mOsm, pH 7.4. Two dilutions were prepared, 97 and 29 mOsm, the balance being Ringers. The solutions were delivered by Pari jet nebulizer to 8 healthy mongrel dogs anaesthetized with pentobarbital and intubated. After 30 min. Ringer aerosol, tracheal mucus velocity (TMV by charcoal particle transport) and potential difference (PD by agar bridge) were measured under bronchoscopic control, and mucus for viscoelasticity analysis (magnetic rheometer) was collected on the endotracheal tube. On one occasion, increasing arginine conc. were aerosolized hourly, following Ringer control. On a second occasion, the same arginine solutions were used, but with 65 mg/ml low m. w. dextran (Polydex, lot #2764) added.

N=C(N)NCCC[C@H](N)C(=O)O [arginine, L-arginine]
TMV (arginine aerosol with or without dextran, increased nonsignificantly from 11.9±2.2 (Ringer)): 14.7±2.9 mm/min | mucus rigidity (log G*) decreased (arginine aerosol without dextran): not | lumen-negative PD (increasing arginine aerosol, with or without added dextran 65 mg/ml, Ringer −14.3±1.4 mV): −20.1±3.6 mV
